Data taken from patent US4316889A, “Novel peptidyl-arginine aldehyde derivatives and process for the preparation thereof” (Richter Gedeon Vegyeszeti Gyar Rt., priority 1979, dated 1982).
Square brackets hold non-standard residues; d marks the D form. Peptide text beside a SMILES is read from it. * marks the point of attachment. d(aIle) = CC[C@H](C)[C@@H](N)C(=O)O; Bz = O=C(c1ccccc1)*

Columns and labels:
[1] = target: T1, US Standard Human Thrombin (Homo sapiens, UniProt P00734); test: Antithrombin activity: amount of drug for tenfold increase of the thrombin-time of fibrinogen; type: biochemical; settings: for Amount of drug required for tenfold increase of thrombin-time following dissolution of peptide, 0 hour: 0 hour after dissolution in TRIS/HCl buffer pH=7.4, bovine fibrinogen, thrombin 5 U/ml; for relative activity (ra), 20 hours: 20 hours in TRIS/HCl buffer, relative to H-D-Phe-Pro-Arg(COOH)-H at 0 hour = 100; for Amount of drug required for tenfold increase of thrombin-time following dissolution of peptide, 20 hours: 20 hours standing in TRIS/HCl buffer pH=7.4; for change of antithrombin potency upon standing in solution: TRIS/HCl buffer, pH=7.4
T1 construct: US Standard Human Thrombin; purchased NIH, Bethesda, Maryland, USA
Experimental: Antithrombin activity is defined by the amount of drug required for a tenfold increase of the thrombin-time of fibrinogen (thrombintime: time of clotting induced by thrombin).
Antithrombin activities were assayed in the following system:
0.5 percent bovine fibrinogen (0.2 ml). in 0.9 percent sodium chloride solution, peptide in TRIS/HCl buffer (0.1 ml., pH=7.4), and US Standard Human Thrombin (0.1 ml.) (NIH, Bethesda, Maryland, USA; 5 U/ml.). The clotting time of the system devoid of peptide is 15 seconds.

thrombin-time = test: In vivo antithrombin activity after oral administration to dogs, measured in a Thromboelastograph; set-up: species or system dog; settings: 50 mg./kg., for a period of two hours
Excerpt: (§1) This effect is substantial not only at intravenous, intramuscular and subcutaneous but also at oral administration.

thrombin [2] = target: thrombin (Homo sapiens, UniProt P00734); settings: Hungarian Patent No. 169,870; cited from earlier work
plasmin = plasmin (Homo sapiens, UniProt P00747); settings: literature (Kawamura et al.; Umezawa); cited from earlier work
trypsin = settings: literature (Kawamura et al.; Umezawa); cited from earlier work
papain = target: T2, papain (Carica papaya, UniProt P00784); settings: literature (Kawamura et al.; Umezawa); cited from earlier work
T2 sequence (P00784 134-345): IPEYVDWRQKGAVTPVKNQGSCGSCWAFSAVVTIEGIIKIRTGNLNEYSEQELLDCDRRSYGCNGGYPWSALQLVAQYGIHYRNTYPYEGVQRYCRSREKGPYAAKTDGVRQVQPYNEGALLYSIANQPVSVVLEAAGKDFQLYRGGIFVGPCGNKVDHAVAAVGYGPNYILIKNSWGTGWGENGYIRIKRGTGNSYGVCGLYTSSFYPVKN

thrombin [3] = test: In vivo trials of antithrombin activity on five species; settings: mouse, rat, rabbit, dog, monkey; intravenous, intramuscular, subcutaneous and oral administration
Excerpt: as §1

Chain of plasmin (P00747 581-810 limits assumed, species assumed): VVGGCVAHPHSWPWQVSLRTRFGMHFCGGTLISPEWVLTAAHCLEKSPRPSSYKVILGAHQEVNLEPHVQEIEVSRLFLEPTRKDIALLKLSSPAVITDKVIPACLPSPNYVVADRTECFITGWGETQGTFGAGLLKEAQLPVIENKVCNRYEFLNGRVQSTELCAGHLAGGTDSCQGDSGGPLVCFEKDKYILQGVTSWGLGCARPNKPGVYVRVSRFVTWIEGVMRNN
Chain of plasmin (P00747 97-580 partner limits assumed, species assumed): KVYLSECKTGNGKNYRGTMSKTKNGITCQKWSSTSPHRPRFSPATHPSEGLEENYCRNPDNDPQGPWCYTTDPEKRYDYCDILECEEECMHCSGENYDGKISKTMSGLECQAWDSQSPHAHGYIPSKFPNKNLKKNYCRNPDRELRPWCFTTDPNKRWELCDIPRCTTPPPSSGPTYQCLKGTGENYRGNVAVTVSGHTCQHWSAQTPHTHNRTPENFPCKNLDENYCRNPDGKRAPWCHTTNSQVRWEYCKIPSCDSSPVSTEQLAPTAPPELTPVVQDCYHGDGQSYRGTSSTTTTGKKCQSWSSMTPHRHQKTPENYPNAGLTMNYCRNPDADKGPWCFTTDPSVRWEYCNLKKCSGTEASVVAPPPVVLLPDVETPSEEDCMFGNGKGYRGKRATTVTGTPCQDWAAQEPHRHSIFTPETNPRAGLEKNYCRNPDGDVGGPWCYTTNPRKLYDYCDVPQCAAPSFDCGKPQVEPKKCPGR

With `CC(=O)O.N=C(N)NCCC[C@@H](C=O)NC(=O)[C@@H]1CCCN1C(=O)[C@H](N)Cc1ccccc1` [H--D-Phe-- Pro--Arg--H . 2 CH3 COOH, D-phenylalanyl-L-prolyl-L-arginine aldehyde acetate] the “Amount of drug required for tenfold increase of thrombin-time following dissolution of peptide, 0 hour” value [1] was 0.37 to 1.25 µg/mL, the “relative activity (ra), 20 hours” value [1] was 4 and the “Amount of drug required for tenfold increase of thrombin-time following dissolution of peptide, 20 hours” value [1] was 6.2 µg/mL. For the same molecule, the “change of antithrombin potency upon standing in solution” value [1] was “reduced”, the “increase of thrombin-time in vivo” value (thrombin-time) was “practically no influence” and the “antithrombin activity (literature)” value (thrombin [2]) was “marked antithrombin activity”.

With `Cl.N=C(N)NCCC[C@@H](C=O)NC(=O)[C@@H]1CCCN1C(=O)[C@H](N)Cc1ccccc1` [H--D-Phe-- Pro--Arg--H . 2HCl, D-phenylalanyl-L-prolyl-L-arginine aldehyde hydrochloride] the “Amount of drug required for tenfold increase of thrombin-time following dissolution of peptide, 0 hour” value [1] was 0.35 to 0.95 µg/mL, the “relative activity (ra), 20 hours” value [1] was 5 and the “Amount of drug required for tenfold increase of thrombin-time following dissolution of peptide, 20 hours” value [1] was 6.0 µg/mL. For the same molecule, the “change of antithrombin potency upon standing in solution” value [1] was “reduced” and the “increase of thrombin-time in vivo” value (thrombin-time) was “practically no influence”.

In the case of `CC(=O)N[C@@H](CC(C)C)C(=O)N[C@@H](CC(C)C)C(=O)N[C@H](C=O)CCCNC(=N)N.Cl` [acetyl-L-leucyl-L-leucyl-arginine aldehyde hydrochloride], the inhibition of plasmin (plasmin) is given as “capable to inhibit”, the inhibition of trypsin (trypsin) is given as “capable to inhibit” and the inhibition of papain (papain) is given as “capable to inhibit”.

For `CC[C@H](C)[C@@H](NC(=O)c1ccccc1)C(=O)N1CCC[C@H]1C(=O)N[C@H](C=O)CCCNC(=N)N.Cc1ccc(S(=O)(=O)O)cc1` [benzoyl-D-allo-isoleucyl-L-prolyl-L-arginine aldehyde p-toluenesulfonate] (Bz-[d(aIle)]-Pro-Arg-aldehyde), the “antithrombin activity (literature)” value (thrombin [2]) is given as “marked antithrombin activity”.

In the case of `CCC(=O)N[C@@H](CC(C)C)C(=O)N[C@@H](CC(C)C)C(=O)N[C@H](C=O)CCCNC(=N)N.Cl` [propionyl-L-leucyl-L-leucyl-arginine aldehyde hydrochloride], the inhibition of plasmin (plasmin) is given as “capable to inhibit”, the inhibition of trypsin (trypsin) is given as “capable to inhibit” and the inhibition of papain (papain) is given as “capable to inhibit”.

For “D-Phenylalanyl-L-prolyl-N^G -carboxyl-L-arginine aldehyde [H--D-Phe-- Pro--Arg(COOH)--H]”, the “Amount of drug required for tenfold increase of thrombin-time following dissolution of peptide, 0 hour” value [1] was 0.275 µg/mL, the “relative activity (ra), 0 hour” value ([1]; 0 hour, activity of H-D-Phe-Pro-Arg(COOH)-H arbitrarily taken as 100) was 100 and the “relative activity (ra), 20 hours” value [1] was 92. The “Amount of drug required for tenfold increase of thrombin-time following dissolution of peptide, 20 hours” value [1] was 0.300 µg/mL, the “antithrombin (enzyme inhibitory) activity compared with the free tripeptide aldehyde salt of corresponding sequence” value ([1]; thrombin-fibrinogen reaction, versus H-D-Phe-Pro-Arg-H hydrochloride or acetate) was “higher” and the “increase of thrombin-time in vivo” value (thrombin-time) was “four to sixfold”. For the same molecule, the “in vivo antithrombin effect” value (thrombin [3]) was “substantial”.
